According to US6831079B1, “Vasopressin agonist formulation and process” (American Cyanamid Company, priority 1999, dated 2004):

Biological target: Vasopressin V2 (Rattus norvegicus, UniProt Q00788)
Assay: Vasopressin V2 agonist effects in normal conscious water-loaded rats
Assay type: in vivo
Set-up: from tissue; host or cells: whole living Sprague-Dawley rat; the receptor is the animal's own (renal, by own knowledge)
Settings: Sprague-Dawley (CD) rats; for Osmolality (% Increase): change in osmolality as percent of control; for Urine Volume (% decrease): vs. control
Source text: Vasopressin V2 Agonist Effects of Test Compounds in Normal Conscious Water-loaded Rats
Male or female normotensive Sprague-Dawley rats (Charles River Laboratories, Inc., Kingston, N.Y.) of 350-500 g body weight were supplied with standard rodent diet (Purina Rodent Lab. Chow 5001) and water ad libitum. On the day of test, rats were placed individually into metabolic cages equipped with devices to separate the feces from the urine and containers for collection of urine. […] The vehicle used was 20% dimethylsulfoxide (DMSO) in 2.5% preboiled corn starch. Thirty minutes after dosing the test compound, rats were gavaged with water at 30 ml/kg into the stomach using a feeding needle. During the test, rats were not provided with water or food. Urine was collected for four hours after dosing of the test compound. At the end of four hours, urine volume was measured. Urinary osmolality was determined using a Fiske One-Ten Osmometer (Fiske Associates, Norwood, Mass., 02062) or an Advanced CRYOMATIC Osmometer, Model 3C.2 (Advanced Instruments, Norwood, Mass.). Determinations of Na^+, K^+ and Cl^− ion were carried out using ion specific electrodes in a Beckman SYNCHRON EL-ISE Electrolyte System analyzer. The urinary osmolality should increase proportionally. In the screening test, two rats were used for each compound. If the difference in the urine volume of the two rats was greater than 50%, a third rat was used.

[1] = 10 mg/kg oral, urine collected four hours

Sequence of Vasopressin V2 (Q00788 whole entry): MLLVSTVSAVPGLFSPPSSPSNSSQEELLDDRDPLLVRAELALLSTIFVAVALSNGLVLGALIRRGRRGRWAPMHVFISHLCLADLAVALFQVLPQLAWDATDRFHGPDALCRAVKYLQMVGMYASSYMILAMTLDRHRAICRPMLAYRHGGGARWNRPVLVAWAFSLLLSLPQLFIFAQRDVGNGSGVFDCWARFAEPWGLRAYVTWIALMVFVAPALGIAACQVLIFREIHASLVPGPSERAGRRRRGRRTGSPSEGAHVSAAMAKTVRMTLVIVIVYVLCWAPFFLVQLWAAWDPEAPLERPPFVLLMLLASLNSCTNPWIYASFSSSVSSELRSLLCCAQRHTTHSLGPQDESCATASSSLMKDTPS

Row | Osmolality (% Increase) (10 mg/kg oral) [%] | Urine Volume (% decrease) [1] [%] | Osmolality (% Increase) (1 mg/kg) | Urine Volume (% decrease) (1 mg/kg) | SMILES
1 | 324 | 49 |  |  | O=C(c1ccc(-n2cccn2)cc1)N1Cc2cccn2Cc2ccccc21 [Example 58, [4-(Pyrazol-1-yl)-phenyl]-(5H,11H-pyrrolo[2,1-c][1,4]benzodiazepin-10-yl)-methanone]
2 | 279 | 54 |  |  | CCn1ccc(-c2ccc(C(=O)N3Cc4cccn4Cc4ccccc43)cc2)n1 [Example 26, [4-(1-Ethyl-1H-pyrazol-3-yl)-phenyl]-(5H,11H-pyrrolo[2,1-c][1,4]-benzodiazepin-10-yl)-methanone]
3 | 373 | 77 |  |  | O=C(c1ccc(-c2ccn(C(=O)C3CC3)n2)cc1)N1Cc2cccn2Cc2ccccc21 [Example 32, [4-(1-Cyclopropanecarbonyl-1H-pyrazol-3-yl)-phenyl]-(5H,11H-pyrrolo[2,1-c][1,4]benzodiazepin-10-yl)-methanone]
4 | 245 | 59 |  |  | Cc1cc(C)n(-c2ccc(C(=O)N3Cc4cccn4Cc4ccccc43)cc2)n1 [Example 61, [4-(3,5-Dimethyl-pyrazol-1-yl)-phenyl]-(5H,11H-pyrrolo[2,1-c][1,4]-benzodiazepin-10-yl)-methanone]
5 | 490 | 82 |  |  | Cc1n[nH]c(-c2ccc(C(=O)N3Cc4cccn4Cc4ccccc43)c(Cl)c2)n1 [Example 81, [2-Choro-4-(5-methyl-2H-[1,2,4]triazol-3-yl)phenyl]-(5H,11H-pyrrolo[2,1-c][1,4]benzodiazepine-10-carbonyl)-methanone]
6 | 37 | 75 |  |  | CCCCn1ccc(-c2ccc(C(=O)N3Cc4cccn4Cc4ccccc43)cc2)n1 [Example 28, [4-(1-Butyl-1H-pyrazol-3-yl)-phenyl]-(5H,11H-pyrrolo[2,1-c][1,4]-benzodiazepin-10-yl)-methanone]
7 | 223 | 53 |  |  | Cc1n[nH]c(-c2ccc(C(=O)N3Cc4cccn4Cc4ccccc43)cc2)n1 [Example 50, [4-(5-Methyl-2H-[1,2,4]triazol-3-yl)-phenyl]-(5H,11H-pyrrolo[2,1-c][1,4]-benzodiazepin-10-yl)-methanone]
8 | 305 | 66 |  |  | COCn1ccc(-c2ccc(C(=O)N3Cc4cccn4Cc4ccccc43)cc2)n1 [Example 29, [4-(1-methoxymethyl-1H-pyrazol-3-yl)-phenyl]-(5H,11H-pyrrolo[2,1-c][1,4]-benzodiazepin-10-yl)-methanone]

The next lines start with the compound.

Row | SMILES | Osmolality (% Increase) (10 mg/kg oral) [%] | Urine Volume (% decrease) [1] [%] | Osmolality (% Increase) (1 mg/kg) | Urine Volume (% decrease) (1 mg/kg)
9 | O=C(c1ccc(-c2ccn(C(=O)Cc3ccc(Cl)cc3Cl)n2)cc1)N1Cc2cccn2Cc2ccccc21 [Example 39, 2-(2,4-Dichloro-phenyl)-1-{3-[4-(5H,11H-pyrrolo[2,1-c][1,4]benzodiazepine-10-carbonyl)-phenyl]-pyrazol-1-yl}-ethanone] | 253 | 69 |  | 
10 | Cc1cnn(-c2ccc(C(=O)N3Cc4cccn4Cc4ccccc43)c(Cl)c2)c1 [Example 11] | 285 | 70 |  | 
11 | Cc1ccn(-c2ccc(C(=O)N3Cc4cccn4Cc4ccccc43)c(C(F)(F)F)c2)n1 [Example 2, [4-(3-Methyl-pyrazol-1-yl)-2-trifluoromethyl-phenyl](5H,11H-pyrrolo[2,1-c]-[1,4]benzodiazepin-10-yl)-methanone] |  |  | 306% (1 mg/kg) | 80% (1 mg/kg)
12 | Cc1cnn(-c2ncc(C(=O)N3Cc4cccn4Cc4ccccc43)c(C(F)(F)F)n2)c1 [Example 21, [2-(4-Methyl-pyrazol-1-yl)-4-trifluoromethyl-pyrimidin-5-yl]-(5H,11H-pyrrolo[2,1-c][1,4]benzodiazepin-10-yl)-methanone] | 181 | 49 |  | 
13 | Cc1cn(-c2ccc(C(=O)N3Cc4cccn4Cc4ccccc43)c(C(F)(F)F)c2)cn1 [Example 6, [4-(4-Methyl-imidazol-1-yl)-2-trifluoromethyl-phenyl]-(5H,11H-pyrrolo[2,1-c][1,4]benzodiazepin-10-yl)-methanone] | 270 | 58 |  | 
14 | Cc1ccn(-c2ncc(C(=O)N3Cc4cccn4Cc4ccccc43)c(C(F)(F)F)n2)n1 [Example 20, [2-(3-Methyl-pyrazol-1-yl)-4-trifluoromethyl-pyrimidin-5-yl]-(5H,11H-pyrrolo[2,1-c][1,4]benzodiazepin-10-yl)-methanone] |  |  | 152% (1 mg/kg) | 25% (1 mg/kg)
15 | O=C(c1ccc(-c2ccn(C(=O)c3ccccc3-c3ccccc3)n2)cc1)N1Cc2cccn2Cc2ccccc21 [Example 40, {4-[1-(Biphenyl-2-carbonyl)-1H-pyrazol-3-yl]-phenyl}-(5H,11H-pyrrolo[2,1-c][1,4]benzodiazepin-10-yl)-methanone] | 183 | 46 |  | 
16 | Cc1ccn(-c2ccc(C(=O)N3Cc4ccnn4Cc4ccccc43)c(C(F)(F)F)c2)n1 [Example 95, [4-(3-Methylpyrazol-1-yl)-2-trifluoromethylphenyl]-(5H,11H-pyrazolo[5,1-c]-[1,4]benzodiazepin-10-yl)-methanone] | 300 | 68 |  | 
17 | Cc1ccn(-c2ccc(C(=O)N3Cc4ccnn4Cc4ccccc43)c(Cl)c2)n1 [Example 116, [2-Chloro-4-(3-methyl-pyrazol-1-yl)-phenyl]-(4H,10H-pyrazolo[5,1-c][1,4]-benzodiazepin-5-yl)-methanone] | 256 | 66 |  | 
18 | Cc1ccnn1-c1ccc(C(=O)N2Cc3cccn3Cc3ccccc32)c(Cl)c1 [Example 9B] | 168 | 21 |  | 
19 | O=C(c1ccc(-n2cncn2)cc1Cl)N1Cc2cccn2Cc2ccccc21 [Example 14, [2-Chloro-4-(1,2,4-triazol-1-yl)-phenyl]-(5H,11H-pyrrolo[2,1-c][1,4]benzodiazepin-10-yl)-methanone] | 406 | 86 |  | 
20 | O=C(c1ccc(-n2ccc(C(F)(F)F)n2)cc1Cl)N1Cc2cccn2Cc2ccccc21 [Example 13, [2-Chloro-4-(3-trifluoromethyl-pyrazol-1-yl)-phenyl]-(5H,11H-pyrrolo[2,1-c][1,4]benzodiazepin-10-yl)-methanone] | 229 | 50 |  | 
21 | Cc1ccn(-c2ccc(C(=O)N3Cc4cccn4Cc4ccccc43)c(O)c2)n1 [Example 109] | 95 | 21 |  | 
22 | Cc1nc(-c2ccc(C(=O)N3Cc4cccn4Cc4ccccc43)c(Cl)c2)n(C)n1 [Example 85, 4-[(2,5-Dimethyl-2H-[1,2,4]triazol-3-yl)-2-chloro-phenyl]-(5H,11H-pyrrolo[2,1-c][1,4]benzodiazepin-10-carbonyl)-methanone] | 436 | 76 |  | 
23 | Cc1cn(-c2ccc(C(=O)N3Cc4cccn4Cc4ccccc43)c(Cl)c2)cn1 [Example 12, [2-Chloro-4-(4-methyl-imidazol-1-yl)-phenyl]-(5H,11H-pyrrolo[2,1-c][1,4]benzodiazepin-10-yl)-methanone] | 330 | 69 |  | 
